Data taken from patent publication US20200054646A1, “USE OF PHENOTHIAZINE DERIVATIVE IN THE TREATMENT OF INFECTIOUS PURPURA OR PURPURA FULMINANS” (priority 2016, published 2020).

Key:
[1] = system: HDMECs colonized by N. meningitidis; assay: Basement membrane remodelling: Gelatin-FITC matrix degradation by infected HDMEC; format: cell-based, human; conditions: infected cells, 150 μg/ml Gentamicin alone, 24 h post-infection
Protocol: (A) Experimental procedure: HDMECs grown on a fluorescent matrix (Gelatin-Fitc) were colonized by N. meningitidis for 6 h. They were then treated with 150 μg/ml gentamicin for 1 h, then 15 min with Trifluoperazine (50 μM) (or solvent alone as control) and incubated for further 15 h in the presence of 150 μg/ml gentamicin. (B) Fluorescence microscopy was used to visualize cells stained with labelled phalloidin and the fluorescent matrix. The presence of dark zones corresponds to zones of matrix degradation. (C) Quantification of the percentage of matrix degradation, using Image J software.
Plastic coverslips (13 mm diameter) (Nalgen #174950) were washed in ethanol 70%, dried then coated with poly-L-lysine 1 mg/ml for 20 min at room temperature. After one wash in sterile PBS, 0.5% Glutaraldehyde was added for 15 min at room temperature. After three washes in PBS, Gelatin-FITC (0.2 mg/ml Invitrogen #G13187) was added for 10 minutes at room temperature in the dark. Coverslip were then washed with sterile PBS and treated with 5 mg/ml sodium borohydride for 3 min. After three washes in sterile PBS, 10^5 HDMECs (PromoCell #C-12210) were seeded per well in their PromoCell culture medium and incubated overnight at 37° C. 5% CO2. The day after, cells were infected with Neisseria meningitidis Nm2C4.3, as above described. […] Quantifications were performed using ImageJ software (NIH).

[2] = system: Nm2C4.3 adhesion to human dermal microvascular endothelial cells (HDMECs); assay: Meningococcal adhesion to endothelial cells after pretreatment of bacteria; format: cell-based, Neisseria meningitidis; conditions: bacteria pre-treated with 30 μM for 30 minutes
Protocol: Nm2C4.3 grown in suspension were pretreated in the absence or in the presence of 30 μM Trifluoperazine for 30 minutes before adhesion to human dermal microvascular endothelial cells (HDMECs) for 30 minutes. Infection was allowed to proceed for further 30, 60 or 90 minutes before fixation and immunostaining using anti-Nm2C4.3 antibody and Alexa Fluor 633 Phalloidin. (A) Representative fluorescence microscopy showing bacterial colony (white dots) formed at the surface of the endothelial cells. (B) Quantification of the bacterial colonization was performed using Image J software.

[3] = system: Enteropathogenic Escherichia Coli (EPEC escN mutant, GFP) microcolonies on HBMEC; assay: Dispersion of EPEC microcolonies at the surface of human endothelial cells; format: cell-based; conditions: 10 to 50 μM, 30 min, dose-dependent
Protocol: Human bone marrow microvascular endothelial cells (HBMEC) were infected with a GFP-expressing mutant Enteropathogenic Escherichia Coli, which lacks the ATPase escN (EPEC […]escN-GFP) for 2 h, then treated with Trifluoperazine (10-50 μM) for 30 minutes, before fixation and immunofluorescence analysis using Alexa Fluor 633 Phalloidin. (A) Representative fluorescence microscopy showing bacterial colony (white dots) formed at the surface of the endothelial cells. (B) Quantification of the bacterial colonization was performed using Image J software.
HBMEC were grown on Thermanox coverslips coated with gelatin 2% for 2 days to reach confluency. Cells were then infected for 1 h with a GFP-expressing mutant Enteropathogenic Escherichia Coli (EPEC), which lacks the ATPase escN. This strain is unable to translocate effector proteins and is more prone to form pilus-dependent microcolony at the host cell surface (Jensen et al., 2015). Cells were then washed three times with medium to remove non-adherent bacteria and infection was pursued for 1 extra hour, to allow bacterial growth at the endothelial cell surface to form microcolonies. Trifluoperazine was then added to obtain final concentrations of 10, 20, 30 and 50 μM. After incubation for 30 minutes, cells were washed and fixed in 4% Paraformaldehyde for 10 min, washed three times with PBS. […] Quantification was done with ImageJ software (NIH). […]

[4] = system: meningococcal colonization of human brain vessels; design: species or system Neisseria meningitidis; conditions: 40 μM for 30 min
Text: Fresh human brain sections were obtained from frontal lobe specimens of macroscopically and histologically normal brain (confirmed by a neuropathologist) of individuals referred to the Department of Forensic Medicine for unexplained out-of-hospital sudden death (consent forms ML1094, PFS 10-008, ClinicalTrials.gov NCT00320099 from The Institutional Review Boards of the Poincare Hospital, Versailles-Saint Quentin University and the French “Agence de la Biomédecine”). After freezing of the brain tissue with isopentane cooled in liquid nitrogen, the sections, 7 μm thick, containing leptomeninges, cortical ribbon and the underlying white matter were immobilised on Superfrost™ plus microscope slides and stored at −80° C. […] Adherent meningococci were detected by immunofluorescence analysis: brain sections were incubated with the following primary antibodies for 2 h in PBS/BSA 0.1%: monoclonal anti-human CD31/PECAM-1 mouse monoclonal antibody (clone HEC7, ABCAM, ab119339) and a rabbit polyclonal serum anti-Nm 2C4.3 strain (1:3000). […] Entire samples were scanned using a Lamina (Perkin Helmer) and were further analysed using confocal microscopy (spinning disk Leica, 63×). Quantification analysis of the images (n=50 per section) was performed using ImageJ software (NIH). […]

SMILES | degradation of the basement membrane [1] | adhesion / colony formation at the endothelial cell surface by pre-treated bacteria [2] | dispersion of EPEC microcolonies [3] | reduction of vascular colonization of the human brain vessels [4]
CN[C@@H]1[C@@H](O)C(O[C@@H]2[C@@H](O)[C@H](O[C@H]3O[C@H]([C@@H](C)NC)CC[C@H]3N)[C@@H](N)C[C@H]2N)OC[C@]1(C)O (stereo partly drawn) [Gentamicin, (3R,4R,5R)-2-{[(1S,2S,3R,4S,6R)-4,6-diamino-3-{[(2R,3R,6S)-3-amino-6-[(1R)-1-(methylamino)ethyl]oxan-2-yl]oxy}-2-hydroxycyclohexyl]oxy}-5-methyl-4-(methylamino)oxane-3,5-diol] | about 20% |  |  | 
CN1CCN(CCCN2c3ccccc3Sc3ccc(C(F)(F)F)cc32)CC1 [Trifluoperazine] |  | did no longer adhere | induced the dispersion | 80%
